Several values for one entry are separate records, joined by “and”; a condition that tells them apart may be missing. Equal entries are not always repeated. Inconclusive results and toxic doses are left out. Rule as the data show it: active = T/C of 150% or more; inactive = T/C below 125%.
Tested on: L1210 leukemia ip in BDF1 mice, survival T/C
Test: NCI In Vivo Anticancer Drug Screen. Data for tumor model L1210 Leukemia (intraperitoneal) in B6D2F1 (BDF1) mice
Conditions: endpoint: mean survival time, higher = longer survival
In short: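 In this screen, tumor-bearing mice given compound are compared to those given vehicle, and their survival values are reported as a treated-to-control quotient.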

[1] = dose: 100.0 mg/kg/injection, schedule: Q01DX009 (ip), vehicle: saline with Tween-80
[2] = dose: 100.0 mg/kg/injection, schedule: Q04DX003 (ip), vehicle: saline with Tween-80

Measured: T/C

CC(=O)NNC(=O)c1ccccn1
inactive: dose: 4.0 mg/kg/injection, schedule: Q03HX024 (ip), vehicle: saline 109 % of control | dose: 8.0 mg/kg/injection, schedule: Q03HX008 (ip), vehicle: saline 96 % of control | dose: 8.0 mg/kg/injection, schedule: Q03HX016 (ip), vehicle: saline 111 % of control | dose: 8.0 mg/kg/injection, schedule: Q03HX024 (ip), vehicle: saline 105 % of control | dose: 16.0 mg/kg/injection, schedule: Q03HX008 (ip), vehicle: saline 105 % of control | dose: 16.0 mg/kg/injection, schedule: Q03HX016 (ip), vehicle: saline 98 % of control | dose: 16.0 mg/kg/injection, schedule: Q03HX024 (ip), vehicle: saline 104 % of control | dose: 32.0 mg/kg/injection, schedule: Q01DX009 (ip), vehicle: saline 104 % of control | dose: 32.0 mg/kg/injection, schedule: Q01DX009 (oral), vehicle: saline 102 % of control | dose: 32.0 mg/kg/injection, schedule: Q03HX008 (ip), vehicle: saline 103 % of control | dose: 32.0 mg/kg/injection, schedule: Q03HX016 (ip), vehicle: saline 104 % of control | dose: 32.0 mg/kg/injection, schedule: Q03HX024 (ip), vehicle: saline 108 % of control | dose: 32.0 mg/kg/injection, schedule: Q04DX003 (ip), vehicle: saline 108 % of control | dose: 64.0 mg/kg/injection, schedule: Q01DX001 (ip), vehicle: saline 102 % of control | dose: 64.0 mg/kg/injection, schedule: Q01DX001 (oral), vehicle: saline 106 % of control | dose: 64.0 mg/kg/injection, schedule: Q01DX009 (ip), vehicle: saline 108 % of control | dose: 64.0 mg/kg/injection, schedule: Q01DX009 (oral), vehicle: saline 114 % of control | dose: 64.0 mg/kg/injection, schedule: Q03HX008 (ip), vehicle: saline 109 % of control | dose: 64.0 mg/kg/injection, schedule: Q03HX016 (ip), vehicle: saline 111 % of control | dose: 64.0 mg/kg/injection, schedule: Q03HX024 (ip), vehicle: saline 117 % of control | dose: 64.0 mg/kg/injection, schedule: Q04DX003 (ip), vehicle: saline 100 % of control | dose: 64.0 mg/kg/injection, schedule: Q08DX002 (ip), vehicle: saline 104 % of control | dose: 75.0 mg/kg/injection, schedule: Q01DX Z (ip), vehicle: water 95 % of control and 105 % of control | dose: 100.0 mg/kg/injection, schedule: Q01DX Z (ip), vehicle: water 96 % of control and 103 % of control | dose: 128.0 mg/kg/injection, schedule: Q01DX001 (ip), vehicle: saline 100 % of control | dose: 128.0 mg/kg/injection, schedule: Q01DX001 (oral), vehicle: saline 108 % of control | dose: 128.0 mg/kg/injection, schedule: Q01DX009 (ip), vehicle: saline 124 % of control | dose: 128.0 mg/kg/injection, schedule: Q01DX009 (oral), vehicle: saline 119 % of control | dose: 128.0 mg/kg/injection, schedule: Q04DX003 (ip), vehicle: saline 103 % of control | dose: 128.0 mg/kg/injection, schedule: Q08DX002 (ip), vehicle: saline 103 % of control | dose: 150.0 mg/kg/injection, schedule: Q01DX Z (ip), vehicle: water 105 % of control and 89 % of control | dose: 256.0 mg/kg/injection, schedule: Q01DX001 (ip), vehicle: saline 109 % of control | dose: 256.0 mg/kg/injection, schedule: Q01DX001 (oral), vehicle: saline 108 % of control | dose: 256.0 mg/kg/injection, schedule: Q01DX009 (ip), vehicle: saline 103 % of control | dose: 256.0 mg/kg/injection, schedule: Q04DX003 (ip), vehicle: saline 105 % of control | dose: 256.0 mg/kg/injection, schedule: Q08DX002 (ip), vehicle: saline 109 % of control

Nc1nc2c(c(-c3ccccc3)n1)CN(CCC(=O)O)C2=O
inactive: dose: 100.0 mg/kg/injection, schedule: Q01DX001 (ip), vehicle: saline 103 % of control | dose: 100.0 mg/kg/injection, schedule: Q04DX003 (ip), vehicle: saline 98 % of control | dose: 200.0 mg/kg/injection, schedule: Q01DX001 (ip), vehicle: saline 107 % of control | dose: 200.0 mg/kg/injection, schedule: Q04DX003 (ip), vehicle: saline 100 % of control | dose: 400.0 mg/kg/injection, schedule: Q01DX001 (ip), vehicle: saline 100 % of control | dose: 400.0 mg/kg/injection, schedule: Q04DX003 (ip), vehicle: saline 98 % of control

C/C(=N\n1c(-c2ccccc2)nc2ccccc2c1=O)c1ccc(C)cc1
inactive: dose: 100.0 mg/kg/injection, schedule: Q01DX009 (ip), vehicle: Klucel (hydroxypropylcellulose) (HPC) 98 % of control | dose: 200.0 mg/kg/injection, schedule: Q01DX009 (ip), vehicle: Klucel (hydroxypropylcellulose) (HPC) 96 % of control | dose: 400.0 mg/kg/injection, schedule: Q01DX009 (ip), vehicle: Klucel (hydroxypropylcellulose) (HPC) 100 % of control

CC(C)CCSc1ccccc1
inactive: dose: 18.75 mg/kg/injection, schedule: Q01DX009 (ip), vehicle: acetone 91 % of control | dose: 37.5 mg/kg/injection, schedule: Q01DX009 (ip), vehicle: acetone 92 % of control | dose: 37.5 mg/kg/injection, schedule: Q04DX003 (ip), vehicle: acetone 100 % of control | dose: 75.0 mg/kg/injection, schedule: Q01DX001 (ip), vehicle: acetone 100 % of control | dose: 75.0 mg/kg/injection, schedule: Q01DX009 (ip), vehicle: acetone 91 % of control | dose: 75.0 mg/kg/injection, schedule: Q04DX003 (ip), vehicle: acetone 90 % of control | dose: 150.0 mg/kg/injection, schedule: Q01DX001 (ip), vehicle: acetone 94 % of control | dose: 150.0 mg/kg/injection, schedule: Q04DX003 (ip), vehicle: acetone 95 % of control

Cc1cc(C)c(CN)cc1CN
inactive: dose: 25.0 mg/kg/injection, schedule: Q01DX009 (ip), vehicle: saline with Tween-80 95 % of control | dose: 50.0 mg/kg/injection, schedule: Q01DX009 (ip), vehicle: saline with Tween-80 98 % of control | [1] 100 % of control | [2] 97 % of control

BrC1c2ccccc2-c2nc3ccccc3cc21 (stereo unspecified)
inactive: dose: 37.5 mg/kg/injection, schedule: Q01DX001 (ip), vehicle: Klucel (hydroxypropylcellulose) (HPC) 103 % of control | dose: 75.0 mg/kg/injection, schedule: Q01DX001 (ip), vehicle: Klucel (hydroxypropylcellulose) (HPC) 97 % of control | dose: 150.0 mg/kg/injection, schedule: Q01DX001 (ip), vehicle: Klucel (hydroxypropylcellulose) (HPC) 101 % of control

N=C1SCC(=O)N1CCN1C(=N)SCC1=O
inactive: dose: 100.0 mg/kg/injection, schedule: Q01DX001 (ip), vehicle: carboxymethylcellulose (CMC) 101 % of control | dose: 200.0 mg/kg/injection, schedule: Q01DX001 (ip), vehicle: carboxymethylcellulose (CMC) 90 % of control | dose: 400.0 mg/kg/injection, schedule: Q01DX001 (ip), vehicle: carboxymethylcellulose (CMC) 97 % of control

CC(=O)OC1CCCCC1NC(=O)NCCCl (stereo unspecified)
inactive: dose: 12.5 mg/kg/injection, schedule: Q04DX002 (ip), vehicle: Klucel (hydroxypropylcellulose) (HPC) 87 % of control | dose: 25.0 mg/kg/injection, schedule: Q04DX002 (ip), vehicle: Klucel (hydroxypropylcellulose) (HPC) 93 % of control | dose: 50.0 mg/kg/injection, schedule: Q04DX002 (ip), vehicle: Klucel (hydroxypropylcellulose) (HPC) 101 % of control | dose: 100.0 mg/kg/injection, schedule: Q04DX002 (ip), vehicle: Klucel (hydroxypropylcellulose) (HPC) 91 % of control | dose: 200.0 mg/kg/injection, schedule: Q04DX002 (ip), vehicle: Klucel (hydroxypropylcellulose) (HPC) 103 % of control | dose: 400.0 mg/kg/injection, schedule: Q04DX002 (ip), vehicle: Klucel (hydroxypropylcellulose) (HPC) 106 % of control and 95 % of control

COC(=O)c1ccccc1NC(=S)NC(=O)C(C)Oc1ccccc1 (stereo unspecified)
inactive: dose: 100.0 mg/kg/injection, schedule: Q01DX001 (ip), vehicle: saline with Tween-80 111 % of control | [1] 108 % of control and 109 % of control | dose: 100.0 mg/kg/injection, schedule: Q04DX002 (ip), vehicle: saline with Tween-80 96 % of control and 108 % of control | [2] 107 % of control | dose: 200.0 mg/kg/injection, schedule: Q01DX001 (ip), vehicle: saline with Tween-80 95 % of control | dose: 200.0 mg/kg/injection, schedule: Q01DX009 (ip), vehicle: saline with Tween-80 95 % of control and 100 % of control | dose: 200.0 mg/kg/injection, schedule: Q04DX002 (ip), vehicle: saline with Tween-80 98 % of control and 107 % of control | dose: 200.0 mg/kg/injection, schedule: Q04DX003 (ip), vehicle: saline with Tween-80 98 % of control | dose: 400.0 mg/kg/injection, schedule: Q01DX001 (ip), vehicle: saline with Tween-80 98 % of control | dose: 400.0 mg/kg/injection, schedule: Q01DX009 (ip), vehicle: saline with Tween-80 92 % of control | dose: 400.0 mg/kg/injection, schedule: Q04DX002 (ip), vehicle: saline with Tween-80 101 % of control and 104 % of control | dose: 400.0 mg/kg/injection, schedule: Q04DX003 (ip), vehicle: saline with Tween-80 106 % of control
